In brackets after ≈: the same amount, converted by molar mass. Like-named read-outs stand apart in the source and are kept apart here.
Legend:
Test in all cases: Antibacterial activity (minimum inhibitory concentration), tube dilution method
Type in all cases: cell-based
[1] = test system: Staphylococcus aureus MS9861; details: for MIC: Staphylococcus aureus
Method: (§1) The antibacterial activities of some typical compounds of this invention were measured by a tube dilution method in a brain heart infusion broth (pH 7.5) as a culture medium.

[2] = test system: Bacillus subtilis NRRL B558; details: for MIC: Bacillus subtilis
Method: as §1

[3] = test system: Klebsiella pneumoniae PCI602
Method: as §1

[4] = test system: Staphylococcus aureus 209P
Method: as §1

[5] = MS9861, tube dilution method, brain heart infusion broth (pH 7.5), read-out: minimum inhibitory concentration, Staphylococcus aureus MS9861
[6] = NRRLB558, tube dilution method, brain heart infusion broth (pH 7.5), read-out: minimum inhibitory concentration, Bacillus subtilis NRRL B558
[7] = PCI602, tube dilution method, brain heart infusion broth (pH 7.5), read-out: minimum inhibitory concentration, Klebsiella pneumoniae PCI602
[8] = tube dilution method, brain heart infusion broth (pH 7.5), read-out: minimum inhibitory concentration, Staphylococcus aureus 209P
[9] = tube dilution method, brain heart infusion broth (pH 7.5)

Structure (SMILES)	MIC [1, 5]	MIC [2, 6]	MIC [3, 7]	MIC [4, 8]	MIC ([1]; MS9861, pH 7.5, read-out: minimum inhibitory concentration, Staphylococcus aureus MS9861, tube dilution method, brain heart infusion broth (pH 7.5))	minimum inhibitory concentration, Staphylococcus aureus MS9861 [1, 9]	MIC ([2]; NRRLB558, pH 7.5, read-out: minimum inhibitory concentration, Bacillus subtilis NRRL B558, tube dilution method, brain heart infusion broth (pH 7.5))	minimum inhibitory concentration, Bacillus subtilis NRRL B558 [2, 9]	MIC ([3]; PCI602, pH 7.5, read-out: minimum inhibitory concentration, Klebsiella pneumoniae PCI602)	MIC ([4]; pH 7.5, read-out: minimum inhibitory concentration, Staphylococcus aureus 209P)
CCC1OC(=O)CC(O)C(C)C(OC2OC(C)C(OC3CC(C)(OC(C)=O)C(OC(=O)CC(C)C)C(C)O3)C(N(C)C)C2O)C(CC=O)CC(C)C(=O)C=CC(C)=CC1CO (stereo not drawn) [(R2)=COCH3, R3=drawing 66, AR4=OH, 3"-O-acetyl-4"-O-isovaleryl-YO-9010]	3.1 µg/mL (≈ 3.57 µM)	0.4 µg/mL (≈ 0.461 µM)	> 100 µg/mL	0.8 µg/mL (≈ 0.922 µM)	–	–	–	–	–	–
CCC1OC(=O)CC(O)C(C)C(OC2OC(C)C(OC3CC(C)(OC(C)=O)C(OC(=O)CC(C)C)C(C)O3)C(N(C)C)C2O)C(CC=O)CC(C)C(=O)C=CC(C)=CC1COC(C)=O (stereo not drawn) [(R2)=COCH3, R3=drawing 75, AR4=OCOCH3]	6.3 µg/mL (≈ 6.92 µM)	1.6 µg/mL (≈ 1.76 µM)	25 µg/mL (≈ 27.5 µM)	1.6 µg/mL (≈ 1.76 µM)	–	–	–	–	–	–
CCC1OC(=O)CC(O)C(C)C(OC2OC(C)C(OC3CC(C)(O)C(O)C(C)O3)C(N(C)C)C2O)C(CC=O)CC(C)C(=O)C=CC(C)=CC1CO (stereo not drawn) [Antibiotic YO9010, 23-demycinosyltylosin, reference compound]	3.1 µg/mL (≈ 4.18 µM)	1.6 µg/mL (≈ 2.16 µM)	12.5 µg/mL (≈ 16.8 µM)	0.8 µg/mL (≈ 1.08 µM)	–	–	–	–	–	–
CCC1OC(=O)CC(OC(C)=O)C(C)C(OC2OC(C)C(OC3CC(C)(O)C(OC(=O)CC(C)C)C(C)O3)C(N(C)C)C2O)C(CC=O)CC(C)C(=O)C=CC(C)=CC1CO (stereo not drawn) [N-1 substance, 3-O-acetyl-4"-O-isovaleryl-YO-9010, reference compound]	1.6 µg/mL (≈ 1.84 µM)	0.8 µg/mL (≈ 0.922 µM)	3.1 µg/mL (≈ 3.57 µM)	0.4 µg/mL (≈ 0.461 µM)	–	–	–	–	–	–
CCC1OC(=O)CC(OC(C)=O)C(C)C(OC2OC(C)C(OC3CC(C)(O)C(OC(=O)CC(C)C)C(C)O3)C(N(C)C)C2O)C(CC=O)CC(C)C(=O)C=CC(C)=CC1CBr (stereo not drawn) [R1=COCH3, R3=drawing 68, AR4=Br, 3-O-Acetyl-23-deoxy-23-bromo-4"-O-isovaleryl-YO-9010]	3.1 µg/mL (≈ 3.33 µM)	1.6 µg/mL (≈ 1.72 µM)	> 100 µg/mL	1.6 µg/mL (≈ 1.72 µM)	–	–	–	–	–	–
CCC1OC(=O)CC(O)C(C)C(OC2OC(C)C(OC3CC(C)(O)C(OC(C)=O)C(C)O3)C(N(C)C)C2O)C(CC=O)CC(C)C(=O)C=CC(C)=CC1CO (stereo not drawn) [R1=H, R3=COCH3, AR4=OH]	25 µg/mL (≈ 31.9 µM)	1.6 µg/mL (≈ 2.04 µM)	3.1 µg/mL (≈ 3.95 µM)	1.6 µg/mL (≈ 2.04 µM)	–	–	–	–	–	–
CCC1OC(=O)CC(O)C(C)C(OC2OC(C)C(OC3CC(C)(O)C(O)C(C)O3)C(N(C)C)C2O)C(CC=O)CC(C)C(=O)C=CC(C)=CC1CBr (stereo not drawn) [R1=H, R3=H, AR4=Br, 23-Deoxy-23-bromo-YO-9010]	0.8 µg/mL (≈ 0.994 µM)	< 0.2 µg/mL	6.3 µg/mL (≈ 7.83 µM)	< 0.2 µg/mL	–	–	–	–	–	–
CCC1OC(=O)CC(O)C(C)C(OC2OC(C)C(OC3CC(C)(O)C(O)C(C)O3)C(N(C)C)C2O)C(CC=O)CC(C)C(=O)C=CC(C)=CC1CI (stereo not drawn) [R1=H, R3=H, AR4=I, 23-Deoxy-23-iodo-YO-9010]	3.1 µg/mL (≈ 3.64 µM)	< 0.2 µg/mL	6.3 µg/mL (≈ 7.4 µM)	0.4 µg/mL (≈ 0.47 µM)	–	–	–	–	–	–
CCC1OC(=O)CC(O)C(C)C(OC2OC(C)C(OC3CC(C)(O)C(O)C(C)O3)C(N(C)C)C2O)C(CC=O)CC(C)C(=O)C=CC(C)=CC1COC(C)=O (stereo not drawn) [R1=H, R3=H, AR4=OCOCH3]	1.6 µg/mL (≈ 2.04 µM)	0.4 µg/mL (≈ 0.51 µM)	25 µg/mL (≈ 31.9 µM)	0.4 µg/mL (≈ 0.51 µM)	–	–	–	–	–	–
CCC1OC(=O)CC(O)C(C)C(OC2OC(C)C(OC3CC(C)(O)C(O)C(C)O3)C(N(C)C)C2O)C(CC=O)CC(C)C(=O)C=CC(C)=CC1CSC (stereo not drawn) [R1=H, R3=H, AR4=SCH3, 23-Deoxy-23-methylthio-YO-9010]	1.6 µg/mL (≈ 2.07 µM)	0.8 µg/mL (≈ 1.04 µM)	6.3 µg/mL (≈ 8.16 µM)	0.8 µg/mL (≈ 1.04 µM)	–	–	–	–	–	–
CCC1OC(=O)CC(O)C(C)C(OC2OC(C)C(OC3CC(C)(O)C(O)C(C)O3)C(N(C)C)C2O)C(CC=O)CC(C)C(=O)C=CC(C)=CC1COC(=O)Cc1ccccc1 (stereo not drawn) [R1=H, R3=H, AR4=drawing 71]	–	–	–	–	1.6 µg/mL (≈ 1.86 µM)	3.1 µg/mL (≈ 3.6 µM)	< 0.2 µg/mL	0.4 µg/mL (≈ 0.465 µM)	6.3 µg/mL (≈ 7.33 µM)	0.4 µg/mL (≈ 0.465 µM)
CCC1OC(=O)CC(O)C(C)C(OC2OC(C)C(OC3CC(C)(O)C(O)C(C)O3)C(N(C)C)C2O)C(CC=O)CC(C)C(=O)C=CC(C)=CC1COC(=O)CSc1ccncc1 (stereo not drawn) [R1=H, R3=H, AR4=drawing 72]	3.1 µg/mL (≈ 3.47 µM)	< 0.2 µg/mL	12.5 µg/mL (≈ 14 µM)	0.8 µg/mL (≈ 0.896 µM)	–	–	–	–	–	–
CCC1OC(=O)CC(O)C(C)C(OC2OC(C)C(OC3CC(C)(O)C(O)C(C)O3)C(N(C)C)C2O)C(CC=O)CC(C)C(=O)C=CC(C)=CC1COC(=O)C(O)c1ccccc1 (stereo not drawn) [R1=H, R3=H, AR4=drawing 73]	1.6 µg/mL (≈ 1.83 µM)	< 0.2 µg/mL	12.5 µg/mL (≈ 14.3 µM)	0.4 µg/mL (≈ 0.457 µM)	–	–	–	–	–	–
CCC1OC(=O)CC(O)C(C)C(OC2OC(C)C(OC3CC(C)(O)C(O)C(C)O3)C(N(C)C)C2O)C(CC=O)CC(C)C(=O)C=CC(C)=CC1COC(=O)C(NSc1ccccc1[N+](=O)[O-])c1ccccc1 (stereo not drawn) [R1=H, R3=H, AR4=drawing 74]	3.1 µg/mL (≈ 3.01 µM)	0.8 µg/mL (≈ 0.778 µM)	3.1 µg/mL (≈ 3.01 µM)	0.8 µg/mL (≈ 0.778 µM)	–	–	–	–	–	–
CCC1OC(=O)CC(O)C(C)C(OC2OC(C)C(OC3CC(C)(O)C(O)C(C)O3)C(N(C)C)C2O)C(CC=O)CC(C)C(=O)C=CC(C)=CC1COS(=O)(=O)c1ccc(C)cc1 (stereo not drawn) [R1=H, R3=H, AR4=drawing 79]	6.3 µg/mL (≈ 7.03 µM)	0.4 µg/mL (≈ 0.446 µM)	25 µg/mL (≈ 27.9 µM)	0.8 µg/mL (≈ 0.893 µM)	–	–	–	–	–	–
CCC1OC(=O)CC(O)C(C)C(OC2OC(C)C(OC3CC(C)(O)C(O)C(C)O3)C(N(C)C)C2O)C(CC=O)CC(C)C(=O)C=CC(C)=CC1CSc1ccccc1 (stereo not drawn) [R1=H, R3=H, AR4=drawing 80]	1.6 µg/mL (≈ 1.92 µM)	< 0.2 µg/mL	25 µg/mL (≈ 30 µM)	< 0.2 µg/mL	–	–	–	–	–	–
CCC1OC(=O)CC(O)C(C)C(OC2OC(C)C(OC3CC(C)(O)C(O)C(C)O3)C(N(C)C)C2O)C(CC=O)CC(C)C(=O)C=CC(C)=CC1CSc1nnnn1C (stereo not drawn) [R1=H, R3=H, AR4=drawing 81]	3.1 µg/mL (≈ 3.69 µM)	< 0.2 µg/mL	12.5 µg/mL (≈ 14.9 µM)	0.8 µg/mL (≈ 0.952 µM)	–	–	–	–	–	–
CCC1OC(=O)CC(O)C(C)C(OC2OC(C)C(OC3CC(C)(O)C(O)C(C)O3)C(N(C)C)C2O)C(CC=O)CC(C)C(=O)C=CC(C)=CC1COC1CCCCO1 (stereo not drawn) [R1=H, R3=H, AR4=drawing 84]	3.1 µg/mL (≈ 3.75 µM)	0.8 µg/mL (≈ 0.968 µM)	12.5 µg/mL (≈ 15.1 µM)	0.8 µg/mL (≈ 0.968 µM)	–	–	–	–	–	–
CCC1OC(=O)CC(O)C(C)C(OC2OC(C)C(OC3CC(C)(O)C(OC(=O)CC(C)C)C(C)O3)C(N(C)C)C2O)C(CC=O)CC(C)C(=O)C=CC(C)=CC1CO (stereo not drawn) [R1=H, R3=drawing 66, AR4=OH, 4"-O-isovaleryl-YO-9010]	1.6 µg/mL (≈ 1.94 µM)	0.8 µg/mL (≈ 0.968 µM)	1.6 µg/mL (≈ 1.94 µM)	0.4 µg/mL (≈ 0.484 µM)	–	–	–	–	–	–
CCC1OC(=O)CC(O)C(C)C(OC2OC(C)C(OC3CC(C)(O)C(OC(=O)CSc4ccccc4)C(C)O3)C(N(C)C)C2O)C(CC=O)CC(C)C(=O)C=CC(C)=CC1CO (stereo not drawn) [R1=H, R3=drawing 67, AR4=OH]	3.1 µg/mL (≈ 3.47 µM)	< 0.2 µg/mL	3.1 µg/mL (≈ 3.47 µM)	0.4 µg/mL (≈ 0.448 µM)	–	–	–	–	–	–
CCC1OC(=O)CC(O)C(C)C(OC2OC(C)C(OC3CC(C)(O)C(OC(=O)CC(C)C)C(C)O3)C(N(C)C)C2O)C(CC=O)CC(C)C(=O)C=CC(C)=CC1CBr (stereo not drawn) [R1=H, R3=drawing 68, AR4=Br, 23-Deoxy-23-bromo-4"-O-isovaleryl-YO-9010]	1.6 µg/mL (≈ 1.8 µM)	0.4 µg/mL (≈ 0.45 µM)	6.3 µg/mL (≈ 7.09 µM)	0.8 µg/mL (≈ 0.9 µM)	–	–	–	–	–	–
CCC1OC(=O)CC(O)C(C)C(OC2OC(C)C(OC3CC(C)(O)C(OC(=O)CSc4ccccc4)C(C)O3)C(N(C)C)C2O)C(CC=O)CC(C)C(=O)C=CC(C)=CC1CBr (stereo not drawn) [R1=H, R3=drawing 69, AR4=Br]	3.1 µg/mL (≈ 3.25 µM)	1.6 µg/mL (≈ 1.68 µM)	> 100 µg/mL	0.4 µg/mL (≈ 0.419 µM)	–	–	–	–	–	–
